Results: US8729053B2, “Nuclear factor kappa B pathway inhibitor composition and use of same” (The United States of America, as represented by the …, priority 2008, dated 2014)

Key:
IKKβ = molecular target: T1, IKKβ (Homo sapiens, UniProt O14920); assay: K-LISA IKKβ Inhibitor Screening Kit in vitro assay; format: biochemical; details: 0.1 to 100 μM, incubated with ATP
T1 construct: purchased Calbiochem
T1 sequence (O14920 1-756): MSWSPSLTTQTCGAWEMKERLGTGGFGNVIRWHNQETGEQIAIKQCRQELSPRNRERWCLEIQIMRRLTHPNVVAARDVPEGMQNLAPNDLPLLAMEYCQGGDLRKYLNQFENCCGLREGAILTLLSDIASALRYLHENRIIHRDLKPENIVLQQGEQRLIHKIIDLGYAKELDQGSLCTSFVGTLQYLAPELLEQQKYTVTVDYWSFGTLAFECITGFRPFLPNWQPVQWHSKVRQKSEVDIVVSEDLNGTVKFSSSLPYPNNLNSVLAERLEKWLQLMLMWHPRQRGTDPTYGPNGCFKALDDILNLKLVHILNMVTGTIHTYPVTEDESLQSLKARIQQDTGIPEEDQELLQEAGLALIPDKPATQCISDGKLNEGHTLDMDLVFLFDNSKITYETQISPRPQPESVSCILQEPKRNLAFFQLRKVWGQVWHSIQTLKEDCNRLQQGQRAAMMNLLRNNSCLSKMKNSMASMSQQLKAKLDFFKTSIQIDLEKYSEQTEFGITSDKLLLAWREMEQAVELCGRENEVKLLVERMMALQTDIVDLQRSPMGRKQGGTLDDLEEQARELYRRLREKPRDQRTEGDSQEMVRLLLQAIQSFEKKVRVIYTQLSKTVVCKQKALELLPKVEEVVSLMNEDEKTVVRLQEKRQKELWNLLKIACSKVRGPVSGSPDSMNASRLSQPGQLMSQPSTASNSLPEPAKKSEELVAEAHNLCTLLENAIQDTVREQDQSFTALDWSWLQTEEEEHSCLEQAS
Protocol: In an attempt to determine whether compound I interferes with ATP binding to the catalytic site, the activity of compound I was measured with fully activated, phosphorylated IKKα or IKKβ. […] However, whether this compound interacts outside of the ATP binding pocket of IKK as an ATP non-competitive inhibitor similar to BMS-345541 is unknown. […] Luciferase activities with TPA induction alone were set at 100% and the relative activities with TPA in the presence of compounds are shown.

NFκB = NFκB luciferase reporter assay in HEK293 cells; format: cell-based; details: at 1 to 8 μM, TPA 10 ng/ml 18 hours
Protocol: (§1) All expression plasmids were transiently transfected into HEK293 cells in a 96-well plate (0.1 μg/well) by using Effectene transfection reagent (Qiagen, Valencia, Calif.) according to the manufacturer's manual. HEK293 cells were maintained in Dulbecco's modified Eagle medium (Sigma, St. Louis, Mo.) supplemented with 10% fetal bovine serum (Atlanta Biologicals, Lawrenceville, Ga.) and incubated at 37° C. in a 5% CO2 incubator. After 24 hrs incubation, the medium was changed to DMEM with 0.2% FBS, and the transfectants were exposed to various concentrations of compound I and TPA (10 ng/ml). Cells were lysed with passive lysis buffer and the luciferase assay was performed using the Firefly-Luciferase reporter assay system (Promega, Madison, Wis.) and MLX Luminometer (Dynex Technology, Chantilly, Va.).
(§2) Three different luciferase reporter genes, AP-1 reporter containing four times TRE consensus originated from GCN4 and SRE reporter purchased from Stratagene (La Jolla, Calif.) respectively are as described previously (Suzukawa et al., Environ. Health Perspect., 2002, 110, 865-70). NFκB reporter is driven by five times NFκB responsive element inserted into Cis-reporter backbone (Stratagene, La Jolla, Calif.). Others include mouse COX-2 promoter region from −203 to +70 relative to the transcription site inserted into pTIS10L vector (Kim and Fischer, J. Biol. Chem., 1998, 273, 27686-94), human uPAR promoter region from −141 to +47 relative to transcription start site in pGL3 vector (Wang et al., Eur. J. Biochem., 2000, 267, 3248-54), and human VEGF promoter sequence from −2274 to +379 inserted into the pGL2 vector (Ding et al., J. Biol. Chem., 2006, 281, 9093-100).
To evaluate whether the compound I biological activity can imitate TAM67 specificity, three different transcriptional promoter reporters were used, AP-1, NFκB, and SRE (Serum response element) in luciferase reporter assays (FIG. 1A: The transfected cells were pre-treated with varied concentrations of compound I or DMSO for 1 hour before 18 hours stimulation by TPA (10 ng/ml) or DMSO as vehicle. An asterisk (*) indicates a separate experiment with NFκB dependent luciferase only. Assays were performed with two independent experiments each in quadruplicate.). All three activities were induced by TPA but only induction of AP-I and NFκB were inhibited by TAM67. The SRE reporter was used as a specificity control and indicator of cell proliferation. TPA-induced SRE activity was not repressed by TAM67 when coexpressed with the SRE-Luc reporter in HEK293 cells. The same concentration (10 ng/ml, 16.2 nM) and incubation time (18 hrs) were used for TPA induction as previously used for the high throughput screen (HTS) (Ruocco et al., J. Biomol. Screen., 2007, 12, 133-9) along with 1 h pretreatment of compound I. The screening results had tested concentrations as high as 40 μM compound I with cell numbers showing 95.5+/−6.2% of DMSO control (ave+/− sd, n=3) by the XTT assay in HEK293T cells.

AP-1 = AP-1 luciferase reporter assay in HEK293 cells; format: cell-based; details: HEK293, TPA 10 ng/ml 18 hours
Protocol: as §1
as §2, with “9093-100). […]” for “9093-100).”

[1] = tested on: SRE (Serum response element); assay: SRE luciferase reporter assay in HEK293 cells; format: cell-based; details: HEK293, TPA 10 ng/ml 18 hours
Protocol: as §1
Three different luciferase reporter genes, AP-1 reporter containing four times TRE consensus originated from GCN4 and SRE reporter purchased from Stratagene (La Jolla, Calif.) respectively are as described previously (Suzukawa et al., Environ. Health Perspect., 2002, 110, 865-70). NFκB reporter is driven by five times NFκB responsive element inserted into Cis-reporter backbone (Stratagene, La Jolla, Calif.). […]

SMILES	Inhibition of phosphorylation of IκBα peptide substrate catalyzed by IKKβ (IKKβ)	Inhibition of NFκB-Luciferase (NFκB)	Inhibition of TPA-induced AP-1 luciferase activity (AP-1)	TPA-induced SRE luciferase activity [1]
Cc1ccc2nc(NCCN)c3ncc(C)n3c2c1 [BMS-345541, reference compound]	no inhibition	dose-dependent inhibition	without inhibition	
O=C(O)c1cc(/N=N/c2ccc(S(=O)(=O)Nc3ccccn3)cc2)ccc1O [sulfasalazine, reference compound]				no sparing
